As usually defined, the IC50 is the midpoint of a concentration-inhibition curve. A lower IC50 goes with inhibition by little substance.

human β-Secretase, sequence (P56817 22-460): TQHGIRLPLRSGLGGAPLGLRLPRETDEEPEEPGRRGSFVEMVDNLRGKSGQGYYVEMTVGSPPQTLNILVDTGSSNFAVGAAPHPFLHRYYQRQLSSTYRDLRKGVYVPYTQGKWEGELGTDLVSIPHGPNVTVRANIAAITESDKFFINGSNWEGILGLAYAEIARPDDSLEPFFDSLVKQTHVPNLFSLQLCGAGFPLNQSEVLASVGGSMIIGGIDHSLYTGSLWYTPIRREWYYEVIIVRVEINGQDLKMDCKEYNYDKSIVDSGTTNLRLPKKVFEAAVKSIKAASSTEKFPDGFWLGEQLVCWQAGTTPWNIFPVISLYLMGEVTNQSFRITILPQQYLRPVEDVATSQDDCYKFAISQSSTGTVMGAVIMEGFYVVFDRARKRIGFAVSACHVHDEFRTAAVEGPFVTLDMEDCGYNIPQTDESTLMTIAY

This assay has as its target human β-Secretase (Homo sapiens (Human), UniProt P56817). Briefly: TR-FRET assay. It counts as biochemical. The conditions noted are these: sBACE-Fc, substrate (Europium)CEVNLDAEFK(Qsy7) 100 nM, pH4.5, 15 minutes at r.t. The protocol:
The β-secretase enzyme used in the TR-FRET is prepared as follows: The cDNA for the soluble part of the human β-Secretase (AA 1-AA 460) was cloned using the ASP2-Fc10-1-IRES-GFP-neoK mammalian expression vector. The gene was fused to the Fc domain of IgG1 (affinity tag) and stably cloned into HEK 293 cells.
The robotic systems Biomek FX and Velocity 11 were used for all liquid handling and the enzyme and substrate solutions were kept on ice until they were placed in the robotic system. Enzyme (9 μl) was added to the plate then 1 μl of compound in dimethylsulphoxide was added, mixed and pre-incubated for 10 minutes. Substrate (10 μl) was then added, mixed and the reaction proceeded for 15 minutes at r.t. The reaction was stopped with the addition of Stop solution (7 μl, NaAcetate, pH 9). […] The dimethylsulphoxide control, instead of test compound, defined the 100% activity level and 0% activity was defined by wells lacking enzyme (replaced with reaction buffer).
A general note: In TR-FRET formats the signal depends on donor and acceptor labels being close together.
Compound `CC1=NC2(N=C1N)c1cc(-c3cc(F)cc(C#N)c3)ccc1CC21CCC(=O)CC1` (stereo not shown) [Example 115, 3-(4″-Amino-5″-methyl-4-oxodispiro[cyclohexane-1,2′-[1H]indene-1′(3′H),2″-[2H]imidazol]-6′-yl)-5-fluorobenzonitrile] gave an IC50 of 632 nM.
Still for that read-out and setting: with `CCO[C@H]1CC[C@]2(CC1)Cc1ccc(-c3cncc(Cl)c3)cc1C21N=C(C)C(N)=N1` (stereo partly shown) [Example 133, (1r,4r)-6′-(5-chloropyridin-3-yl)-4-ethoxy-5″-methyl-3′H-dispiro[cyclohexane-1,2′-indene-1′,2″-imidazol]-4″-amine] the figure was 25 nM.
The same measure, in the same setting: the same measure for `CC#Cc1cncc(-c2ccc3c(c2)C2(N=C(C)C(N)=N2)[C@]2(CC[C@H](OCC)CC2)C3)c1` (stereo partly shown) [Example 135, (1r,4r)-4-Ethoxy-5″-methyl-6′-[5-(prop-1-yn-1-yl)pyridin-3-yl]-3′H-dispiro[cyclohexane-1,2′-indene-1′,2″-imidazol]-4″-amine]: 22 nM.
In the case of `CC1=NC2(CC(C3CCOC(C)(C)C3)Oc3ccc(Br)cc32)N=C1N` (mixture of isomers) [Example 49 Isomeric mixture 2, 6-Bromo-2-(2,2-dimethyltetrahydro-2H-pyran-4-yl)-5′-methyl-spiro[chromane-4,2′-imidazole]-4′-amine], the “IC50 in TR-FRET assay” value is “inactive”.
`CC1=NC2(CC(C3CCCOC3)Oc3ccc(Br)cc32)N=C1N` (single isomer, unassigned) [Example 47 Isomer 6, 6-Bromo-5′-methyl-2-(tetrahydro-2H-pyran-3-yl)spiro[chromane-4,2′-imidazole]-4′-amine] showed an IC50 of 1380 nM.
On the same count and under the same terms, with `COc1ccc(OC)c(-c2ccc3c(c2)C2(CCO3)N=C(C)C(N)=N2)c1` (stereo not shown) [Example 5, 6-(2,5-Dimethoxyphenyl)-5′-methylspiro[chroman-4,2′-imidazol]-4′-amine] the figure was 3640 nM; with `CC1=NC2(N=C1N)c1cc(NC(=O)c3ccc(Cl)cn3)ccc1CC21CCC(F)(F)CC1` (stereo not shown) [Example 28d, N-(4″-Amino-4,4-difluoro-5″-methyl-3′H-dispiro[cyclohexane-1,2′-indene-1′,2″-imidazol]-6′-yl)-5-chloropyridine-2-carboxamide], 408 nM.
As to `CO[C@H]1CC[C@]2(CC1)Cc1ccc(-c3cccc(F)c3F)cc1[C@@]21N=C(C)C(N)=N1` [Example 101], 19.8 nM corresponded to half-maximal inhibition (IC50).
In the case of `CCC1=NC2(N=C1N)c1cc(Br)ccc1C[C@]21CC[C@@H](OC)CC1` (stereo partly shown) [Example 64, (1r,4r)-6′-Bromo-5″-ethyl-4-methoxy-3′H-dispiro[cyclohexane-1,2′-indene-1′,2″-imidazol]-4″-amine], 401 nM corresponded to half-maximal inhibition (IC50).
As for `COc1ccc(C)cc1-c1ccc2c(c1)C1(CCO2)N=C(C)C(N)=N1` (stereo not shown) [Example 10, 6-(2-Methoxy-5-methylphenyl)-5′-methylspiro[chroman-4,2′-imidazol]-4′-amine], the IC50 is 6850 nM.
Consider `CC1=NC2(CC(C3CCCOC3)Oc3ccc(Br)cc32)N=C1N` (single isomer, unassigned) [Example 47 Isomer 5, 6-Bromo-5′-methyl-2-(tetrahydro-2H-pyran-3-yl)spiro[chromane-4,2′-imidazole]-4′-amine], for which the IC50 came to 19800 nM.
`CC1=NC2(CCOc3ccc(NC(=O)c4ncc(Cl)cc4Cl)cc32)N=C1N` (stereo not shown) [Example 13i, N-(4′-Amino-5′-methylspiro[chroman-4,2′-imidazole]-6-yl)-3,5-dichloropicolinamide] showed an IC50 of 560 nM.
`CC#Cc1cncc(-c2ccc3c(c2)C2(N=C(C)C(N)=N2)[C@]2(CC[C@](C)(OC)CC2)C3)c1` (stereo partly shown) [Example 111, (1r,4r)-4-Methoxy-4,5″-dimethyl-6′-[5-(prop-1-yn-1-yl)pyridin-3-yl]-3′H-dispiro[cyclohexane-1,2′-indene-1′,2″-imidazol]-4″-amine] registered an IC50 of 51 nM.
In turn, `CC#CCOc1ccc(C(=O)Nc2ccc3c(c2)C2(CCO3)N=C(C)C(N)=N2)nc1` (stereo not shown) [Example 13d, N-(4′-amino-5′-methylspiro[chroman-4,2′-imidazole]-6-yl)-5-(but-2-ynyloxy)picolinamide] yielded an IC50 of 112 nM.
Take `CC1=NC2(N=C1N)c1cc(-c3ccc(F)c(Cl)c3)ccc1CC21CCOCC1` (stereo not shown) [Example 26c, 6′-(3-Chloro-4-fluorophenyl)-5-methyl-2″,3″,5″,6″-tetrahydro-3′H-dispiro[imidazole-2,1′-indene-2′,4″-pyran]-4-amine]: inhibition was half-maximal at 145 nM (IC50).
Same read-out and setting: the same measure for `CC1=NC2(CC(C3CCCOC3)Oc3ccc(Br)cc32)N=C1N` (single isomer, unassigned) [Example 47 Isomer 2, 6-Bromo-5′-methyl-2-(tetrahydro-2H-pyran-3-yl)spiro[chromane-4,2′-imidazole]-4′-amine]: 1030 nM; for `CC1=N[C@]2(N=C1N)c1cc(-c3cc(F)cc(C#N)c3)ccc1C[C@]21CC[C@@H](OC(F)F)CC1` (racemic) [Example 105, 3-[(1r,4r)-4″-Amino-4-(difluoromethoxy)-5″-methyl-3′H-dispiro[cyclohexane-1,2′-indene-1′,2″-imidazol]-6′-yl]-5-fluorobenzonitrile]: 22 nM; for `CC1=NC2(CC(C3CCCOC3)Oc3ccc(Br)cc32)N=C1N` (single isomer, unassigned) [Example 47 Isomer 4, 6-Bromo-5′-methyl-2-(tetrahydro-2H-pyran-3-yl)spiro[chromane-4,2′-imidazole]-4′-amine]: 65300 nM.
`CC1=NC2(CC(C3CCOC(C)(C)C3)Oc3ccc(-c4cccc(Cl)c4)cc32)N=C1N` (racemic) [Example 50 Isomeric mixture 1, 6-(3-Chlorophenyl)-2-(2,2-dimethyltetrahydro-2H-pyran-4-yl)-5′-methylspiro[chroman-4,2′-imidazol]-4′-amine] had an IC50 of 100 nM.
`CC1=NC2(N=C1N)c1cc(-c3cc(F)cc(F)c3)ccc1C[C@]21CC[C@@H](OC(F)F)CC1` (stereo partly shown) [Example 109, (1r,4r)-4-(Difluoromethoxy)-6′-(3,5-difluorophenyl)-5″-methyl-3′H-dispiro[cyclohexane-1,2′-indene-1′,2″-imidazol]-4″-amine] gave a 50% inhibitory concentration (IC50) of 21 nM.
The compound `CC#Cc1cncc(-c2ccc3c(c2)C2(N=C(C)C(N)=N2)[C@]2(CC[C@H](OC)CC2)C3)c1C` (stereo partly shown) [Example 63, (1r,4r)-4-Methoxy-5″-methyl-6′-[4-methyl-5-(prop-1-yn-1-yl)pyridin-3-yl]-3′H-dispiro[cyclohexane-1,2′-indene-1′,2″-imidazol]-4″-amine] registered a concentration for half-maximal inhibition (IC50) of 89 nM.
In turn, `CC1=NC2(N=C1N)c1cc(-c3cccc(Cl)c3)ccc1CC21CCOCC1` (stereo not shown) [Example 26a, 6′-(3-Chlorophenyl)-5-methyl-2″,3″,5″,6″-tetrahydro-3′H-dispiro[imidazole-2,1′-indene-2′,4″-pyran]-4-amine] displayed a half-inhibitory concentration (IC50) of 100 nM.

(Values after US8865911B2, “Compounds and their use as BACE inhibitors” (Astrazeneca AB, priority 2010, dated 2014).)
